According to patent US12383533B2 (Frost Biologic, Inc., priority 2014, dated 2025):

What was measured:
[1] = tested on: porcine neuronal tubulin; assay: Tubulin Polymerization Assay; assay type: biochemical; conditions: porcine tubulin 2.0 mg/ml, 37° C., fluorescence; read-out: IC50 (tubulin polymerization, from Vmax)
Source text: Tubulin Polymerization Assay
The Tubulin Polymerization Assay uses porcine neuronal tubulin and measurements are based on fluorescence enhancement due to the incorporation of a fluorescent reporter into microtubules as polymerization occurs. The assay generates a polymerization curve representing the three phases of microtubule formation (nucleation, growth and equilibrium). IC50 values for tested compounds can be generated from the observed polymerization curves.
Procedure: All compounds dilutions (in DMSO) were prepared prior to the following steps. A Molecular Devices M2 plate reader was set to 37° C. Once the internal temperature of the plate reader reached 37° C. a 96 well plate (Corning Costar, at. #3686) was placed in the fluorimeter and allowed to warm to 37° C. for 30 minutes. A total of 10 mg of porcine tubulin was resuspended in […] of Polymerization Buffer [Buffer 1 (80 mM PIPES pH 6.9, 2.0 mM MgCl2, 0.5 mM EGTA, 1.0 mM GTP and 10 μM fluorescent reporter) supplemented with 20% glycerol] to generate a 2.0 mg/ml tubulin stock and this was kept on ice. The 50× compound stocks in 100% DMSO were spotted 1 μl/well in duplicate into the wells of the 96-well plate at 37° C. and allowed to re-warm for 5 minutes at 37° C. During this incubation the 2.0 mg/ml tubulin stock was placed in a disposable plastic trough and allowed to warm briefly at room temperature. To initiate the reaction, 50 μl/well of 2.0 mg/ml tubulin in Polymerization Buffer was added to each well using a multi-channel pipettor and the fluorescence measurements were started immediately.
The maximal velocity (Vmax) of tubulin polymerization was determined using linear regression of the averaged fluorescence data at each time point using GraphPad Prism 5.0 software. The Vmax determinations for each compound at each concentration were then normalized to reactions that contained DMSO (2% final concentration) but no test compounds. This converted the data to % Activity, which refers to the percent of the Vmax of an uninhibited reaction. The concentration response curves were then plotted as the % Activity versus the Log 10 of the compound concentration in micromolar and fit by non-linear regression to a 4-parameter sigmoidal dose-response equation using GraphPad Prism 5.0 software to determine the IC50 for each compound.

[2] = tested on: A2780 cells; assay: Cell Viability Assay (ATPlite 1step), A2780; assay type: cell-based; conditions: Homo sapiens, 72 hours; for percent inhibition of cell viability at 4 µM: A2780, 4 uM compound, read-out: Cell Viability % inhibition A2780 (4 uM Cpd); for percent inhibition of cell viability at 20 µM: A2780, 20 uM compound, read-out: Cell Viability % inhibition A2780 (20 uM Cpd)
Procedure, shortened: (§1)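 Cells seeded at 1000/well, grown 24 h at 37 °C/5% CO2, then exposed to compounds (DMSO stock diluted in media) for 72 h; viability read by ATPlite 1step luminescence. A2780 and PC3 in RPMI, MCF-7 in K-12F, each with 10% FBS.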

[3] = tested on: PC3 cells; assay: Cell Viability Assay (ATPlite 1step), PC3; assay type: cell-based; conditions: Homo sapiens, PC-3, 72 hours; for percent inhibition of cell viability at 4 µM: PC3, 4 uM compound, read-out: Cell Viability % inhibition PC3 (4 uM Cpd); for percent inhibition of cell viability at 20 µM: PC3, 20 uM compound, read-out: Cell Viability % inhibition PC3 (20 uM Cpd)
Procedure, shortened: as §1

[4] = tested on: MCF-7 cells; assay: Cell Viability Assay (ATPlite 1step), MCF-7; assay type: cell-based; conditions: Homo sapiens, MCF7, 72 hours; for percent inhibition of cell viability at 4 µM: MCF-7, 4 uM compound, read-out: Cell Viability % inhibition MCF-7 (4 uM Cpd); for percent inhibition of cell viability at 20 µM: MCF-7, 20 uM compound, read-out: Cell Viability % inhibition MCF-7 (20 uM Cpd)
Procedure: Cell Viability Assay Protocol
Cells were trypsinized, counted, and re-seeded into a 384-well tissue culture plate at 1000 cells per well in […] media. Cells were incubated at 37° C. in an atmosphere of 5% CO2 for 24 hours. Experimental compounds, initially dissolved in DMSO and diluted further in media were added to the wells and incubated for 72 hours. Cell viability was measured using the ATPlite 1step Luminescence Detection Assay system (Perkin Elmer) as described in the Assay kit instructions.
Cell Culture Lines and Media: (1) A2780 cells were cultured in RPMI media with 10% FBS and 1% antibiotics. Cells were typically split every 3-5 days at a 1:10 dilution; (2) PC3 cells were cultured in RPMI media with 10% FBS and 1% antibiotics. Cells were typically split every 3-5 days at a 1:4 dilution; (3) MCF-7 cells were grown in K-12F media with 10% FBS and 1% antibiotics. Cells were typically split every 3-5 days at a 1:10 dilution.

Row | Compound | IC50 [1] | percent inhibition of cell viability at 4 µM [2] | percent inhibition of cell viability at 20 µM [2] | percent inhibition of cell viability at 4 µM [3] | percent inhibition of cell viability at 20 µM [3] | percent inhibition of cell viability at 4 µM [4] | percent inhibition of cell viability at 20 µM [4]
1 | Cc1ccc(C(=O)Nc2ccc(-c3cccc(C4COC4)c3)cn2)cn1 [Compound 44, 6-methyl-N-{5-[3-(oxetan-3-yl)phenyl]pyridin-2-yl}pyridine-3-carboxamide] | 0.3 µM | 86.5% | 86.1% | 81.8% | 84.6% | – | –
2 | Cc1ncc(C(=O)Nc2ncc(-c3cccc(OC4CC4)c3)cc2F)cn1 [Compound 66, N-{5-[3-(cyclopropyloxy)phenyl]-3-fluoropyridin-2-yl}-2-methylpyrimidine-5-carboxamide] | 3.84 µM | 89% | 88.4% | 66% | 70.6% | 75% | 76%
3 | O=C(Nc1ccc(-c2cccc(C3CC3)c2)cn1)c1cncnc1 [Compound 16, N-[5-(3-cyclopropylphenyl)pyridin-2-yl]pyrimidine-5-carboxamide] | 0.48 µM | 90.4% | 92.1% | 73.7% | 77.7% | 70.2% | 78.4%
4 | Cc1ncc(C(=O)Nc2ccc(-c3cccc(S(=O)(=O)C4CC4)c3)c(C)n2)cn1 [Compound 64, N-{5-[3-(cyclopropylsulfonyl)phenyl]-6-methylpyridin-2-yl}-2-methylpyrimidine-5-carboxamide] | 0.12 µM | 80% | 81.5% | 59.4% | 62.7% | 73.5% | 74.5%
5 | Cc1ncc(C(=O)Nc2ccc(-c3cccc(NC4CC4)c3)cn2)cn1 [Compound 31, N-{5-[3-(cyclopropylamino)phenyl]pyridin-2-yl}-2-methylpyrimidine-5-carboxamide] | 0.32 µM | 70.9% | 71.2% | 51.8% | 43.7% | – | –
6 | Cc1ncc(C(=O)Nc2ccc(-c3cccc(OC4CC4)c3)cn2)cn1 [Compound 27, N-{5-[3-(cyclopropyloxy)phenyl]pyridin-2-yl}-2-methylpyrimidine-5-carboxamide] | 0.68 µM | 77.3% | 77.4% | 58.3% | 69.6% | – | –
7 | CC[C@]1(O)C[C@H]2CN(CCc3c([nH]c4ccccc34)[C@@](C(=O)OC)(c3cc4c(cc3OC)N(C=O)[C@H]3[C@@](O)(C(=O)OC)[C@H](OC(C)=O)[C@]5(CC)C=CCN6CC[C@]43[C@@H]65)C2)C1 [Vincristine, reference compound] | 0.68 µM | – | – | – | – | – | –
8 | Cc1ncc(C(=O)Nc2ncc(-c3cccc(C4CC4)c3)cc2F)cn1 [Compound 67, N-[5-(3-cyclopropylphenyl)-3-fluoropyridin-2-yl]-2-methylpyrimidine-5-carboxamide] | 2.42 µM | 87.1% | 87.9% | 56% | 61.6% | 60% | 63.7%
9 | Cc1ncc(C(=O)Nc2ncc(-c3cccc(S(=O)(=O)C4CC4)c3)cc2F)cn1 [Compound 70, N-{5-[3-(cyclopropylsulfonyl)phenyl]-3-fluoropyridin-2-yl}-2-methylpyrimidine-5-carboxamide] | 0.01 µM | 86.3% | 87.8% | 58.4% | 65% | 61.1% | 66.1%
10 | Cc1ncc(C(=O)Nc2ccc(-c3ccsc3)cn2)cn1 [Compound 61, 2-methyl-N-[5-(thiophen-3-yl)pyridin-2-yl]pyrimidine-5-carboxamide] | 0.26 µM | 86.5% | 89.7% | 58.3% | 70.6% | 73.3% | 72.9%
11 | Cc1ncc(C(=O)Nc2ccc(-c3cccc(S(=O)(=O)C4CC4)c3)cn2)cn1 [Compound 63, N-{5-[3-(cyclopropylsulfonyl)phenyl]pyridin-2-yl}-2-methylpyrimidine-5-carboxamide] | 0.24 µM | 85.6% | 88% | 61.4% | 67.6% | 59.1% | 65.1%
12 | CC[C@]1(O)C[C@@H]2CN(CCc3c([nH]c4ccccc34)[C@@](C(=O)OC)(c3cc4c(cc3OC)N(C)[C@H]3[C@@](O)(C(=O)OC)[C@H](OC(C)=O)[C@]5(CC)C=CCN6CC[C@]43[C@@H]65)C2)C1 [Vinblastine, reference compound] | 0.2 µM | – | – | – | – | – | –
13 | Cc1ncc(C(=O)Nc2ncc(-c3ccsc3)cc2F)cn1 [Compound 69, N-[3-fluoro-5-(thiophen-3-yl)pyridin-2-yl]-2-methylpyrimidine-5-carboxamide] | 2.35 µM | 84.7% | 90.1% | 57.6% | 64.5% | 56.2% | 61.3%
14 | O=C(Nc1ccc(-c2ccccc2)cn1)c1cncnc1 [Compound 1] | 1.4 µM | 84.2% | 93.6% | 59.1% | 72.2% | 46.1% | 68.4%
15 | Cc1ncc(C(=O)Nc2ccc(-c3cccc(C4CC4)c3)cn2)cn1 [Compound 23, N-[5-(3-cyclopropylphenyl)pyridin-2-yl]-2-methylpyrimidine-5-carboxamide] | 0.89 µM | 71.5% | 80.3% | 53.7% | 66.2% | – | –
16 | O=C(Nc1ccc(-c2cccc(Cl)c2)cn1)c1cncnc1 [Compound 3, N-[5-(3-chlorophenyl)pyridin-2-yl]pyrimidine-5-carboxamide] | 1.45 µM | 84.8% | 90.2% | 60.9% | 68.3% | 50.6% | 56.8%
